Several values for one entry are separate records, joined by “and”; a condition that tells them apart may be missing. Identical values can stand only once.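 Cells were grown in 96-well plates and exposed to each compound for 48 hours at five concentrations; endpoints were interpolated linearly between bracketing concentrations, or set to the highest concentration if not reached. GI50 is the concentration that inhibits growth by half. TGI: total growth inhibition.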
Experiments:
Assay in all cases: DTP human tumour cell line panel, 48 h
[1] = tested on: KM20L2 colon
[2] = tested on: SK-MEL-28 melanoma
[3] = tested on: COLO 205 colon
[4] = tested on: SNB-78 CNS
[5] = tested on: DMS 114 small cell lung
[6] = tested on: NCI-H226 lung
[7] = tested on: DLD-1 colon
[8] = tested on: SNB-19 CNS
[9] = tested on: SNB-75 CNS
[10] = tested on: LXFL 529 NSCLC
[11] = tested on: XF 498 CNS
[12] = tested on: T-47D breast
[13] = tested on: NCI/ADR-RES ovarian
[14] = tested on: HS 578T breast

Structure (SMILES)	TGI [1] [µM]	TGI [2] [µM]	TGI [3]	TGI [4] [µM]	TGI [5] [µM]	TGI [6] [µM]	TGI [7] [µM]	TGI [8] [µM]	TGI [9] [µM]	TGI [10] [µM]	TGI [11] [µM]	TGI [12] [µM]	TGI [13] [µM]	TGI [14] [µM]	GI50 [13] [µM]
COc1ccc2c(c1)C=C(C(C)(C)C)NS2(=O)=O	> 100	> 100	> 100 µM	> 100	> 100	> 100	> 100	> 100	> 100	> 100	–	–	–	–	–
COc1ccc(NS(=O)(=O)c2ccc(N=C3C=C(Nc4ccc(S(=O)(=O)Nc5ccc(OC)nn5)cc4)C(=O)c4ccccc43)cc2)nn1	31.8	31.4	32.5 µM	> 100	66.7	34.2	36.9	33.4	35.1	57.9	54.3	–	–	–	–
COc1ccc2c(c1)c(=O)c1c(NCCCN(C)C)ccc3ncn2c31	17.1	26.4	18.6 µM	23.5	22.6	22.2	17.8	20.5	19.8	19.8	18.9	32.8	16.4	29.3	–
O=C(N[C@@H](Cc1ccccc1)B(O)O)[C@H](Cc1cccc2ccccc12)NC(=O)N1CCOCC1	–	0.00367	0.197 µM and 0.233 µM	–	–	0.00164	–	0.671	0.0558	–	–	0.00368	> 100	0.213	7.31
C(#C[C@@]12CCC[C@@H]1N(Cc1ccccc1)CO2)c1ccc2c(c1)OCO2	–	> 100	> 100 µM	–	–	> 100	–	> 100	> 100	–	–	> 100	> 100	> 100	–
Clc1nc(Nc2nc3ccccc3[nH]2)nc(Cl)c1-c1ccccc1	–	27	51.3 µM	–	–	46.4	–	> 100	39.7	–	–	> 100	92.7	56.4	–
Cc1cc(=O)n2nc(CSc3n[nH]c(=S)s3)sc2n1	–	> 100	> 100 µM	–	–	> 100	–	> 100	> 100	–	–	> 100	> 100	> 100	–
O=C1NC(N2CCCCC2)=N/C1=C\c1ccccc1	–	> 100	> 100 µM	–	–	> 100	–	> 100	> 100	–	–	> 100	> 100	> 100	–
CC(C)C[C@H](NC(=O)CCc1cccc2ccccc12)B(O)O	–	4.05	36.3 µM	–	–	0.392	–	> 100	> 22.6	–	–	4.23	11.7	7.4	–
Brc1ccc(C2CC3(c4ccccc4)ON=C(c4ccccc4)N3c3ccccc3S2)cc1 (stereo not given)	–	> 100	> 100 µM	–	–	> 100	–	> 100	> 100	–	–	> 100	> 100	> 100	–
CC1(C)CN=C(Nc2ccc(F)c(Cl)c2)S1	–	> 100	> 100 µM	–	–	> 100	–	> 100	> 100	–	–	> 100	> 100	> 100	–
C[C@H](CO)C1=CC(C#C[Si](C)(C)C)N(C(=O)Oc2ccccc2)c2ccccc21 (stereo not given in full)	–	37.5	24.3 µM	–	–	34.6	–	29.8	23	–	–	38.1	12.6	26.4	–
N#CC1=C(S)N(C2OC(CO)C(O)C(O)C2O)C(c2ccccc2)=CC1c1cccs1 (stereo not given)	–	41.4	38.6 µM	–	–	41.3	–	> 10	51.8	–	–	65.7	> 100	67	–
COC(=O)/C=C/c1cnc2c(c1)oc(=O)n2C	–	> 100	> 100 µM	–	–	> 100	–	> 100	> 100	–	–	> 100	> 100	> 100	–
FC(F)(F)C1(c2ccccc2)SCc2nc3ccccc3n21 (stereo not given)	–	> 100	> 100 µM	–	–	> 100	–	> 100	> 100	–	–	> 100	> 100	> 100	–
CCSc1nc(C)nc2c1sc1nc3ccccc3n12	–	> 100	> 100 µM	–	–	> 100	–	> 100	> 100	–	–	> 100	> 100	92.9	–
